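How tested: cells in 96-well plates exposed to compound for 48 hours at five concentrations. The concentration for full growth arrest is given as TGI.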

Some test systems named below: MCF7 breast; MDA-N; HOP-92 NSCLC; PC-3 prostate; EKVX NSCLC; SNB-19 CNS; HL-60(TB) leukemia; SNB-75 CNS; A549 NSCLC; SR leukemia.
Holding throughout (experiment): NCI tumour cell line growth inhibition, 48 h

Take `c1ccc(CC2COC(c3cccs3)=N2)cc1` (stereo not given): the TGI is more than 31.6 µM in the assay on MCF7 breast; more than 100 µM with MDA-N; more than 100 µM in the assay on HOP-92 NSCLC; more than 100 µM in the assay on PC-3 prostate; more than 100 µM with EKVX NSCLC; more than 100 µM in the assay on SNB-19 CNS. Further, the TGI with HL-60(TB) leukemia, in the assay with SNB-75 CNS, in the assay with A549 NSCLC and in the assay with SR leukemia was more than 100 µM each time.
In the case of `O=C1c2c(Br)sc(Br)c2[C@@H](NC(=O)C(F)(F)F)C1Br` (stereo not given in full), the TGI stood at 15.6 µM in the assay on MCF7 breast; 9.14 µM with MDA-N; 6.69 µM in the assay on HOP-92 NSCLC; 15.1 µM in the assay with PC-3 prostate; 11.6 µM with EKVX NSCLC; 25.9 µM in the assay with SNB-19 CNS. Also, the TGI in the assay with HL-60(TB) leukemia worked out at 1.59 µM; in the assay on SNB-75 CNS, 16.1 µM; in the assay with A549 NSCLC, 32.7 µM; with SR leukemia, 5.3 µM.
Turning to `CC[C@@]1(O)C(=O)OCc2c1cc1n(c2=O)Cc2c-1nc1ccccc1c2/C=N\NC(=O)C(N)CCSC` (stereo not given in full), the TGI is 1.84 µM with MCF7 breast; more than 100 µM in the assay with MDA-N; 2.98 µM in the assay on HOP-92 NSCLC; more than 100 µM in the assay on PC-3 prostate; more than 100 µM in the assay with EKVX NSCLC; 0.722 µM in the assay with SNB-19 CNS. Further, the TGI in the assay with HL-60(TB) leukemia is 2.66 µM; with SNB-75 CNS, 1.44 µM; with A549 NSCLC, 3.19 µM; with SR leukemia, less than 0.0397 µM.
On to `COC(=O)C1CCC(=O)N1C(c1ccc2c(c1)OCO2)c1cc(OC)c(OC)c(OC)c1` (stereo not given), for which the TGI in the assay with MCF7 breast, in the assay on MDA-N, in the assay with HOP-92 NSCLC, in the assay on PC-3 prostate, in the assay on EKVX NSCLC and with SNB-19 CNS was more than 100 µM throughout. The TGI with HL-60(TB) leukemia, with SNB-75 CNS, in the assay on A549 NSCLC and in the assay on SR leukemia was more than 100 µM in each case.
`Clc1ccc(C2ON=C(c3ccccc3)N2C23CC4CC(CC(C4)C2)C3)cc1` (stereo not given): the TGI with MCF7 breast, with MDA-N, in the assay with HOP-92 NSCLC, in the assay on PC-3 prostate, in the assay with EKVX NSCLC and in the assay with SNB-19 CNS was more than 10 µM throughout. Further, the TGI with HL-60(TB) leukemia, with SNB-75 CNS, in the assay with A549 NSCLC and with SR leukemia was more than 10 µM each time.
For `N#Cc1nc(C#N)n(S(=O)(=O)c2ccccc2)c1NS(=O)(=O)c1ccccc1`, the TGI in the assay with MCF7 breast, in the assay with MDA-N, in the assay with HOP-92 NSCLC, in the assay on PC-3 prostate, in the assay with EKVX NSCLC and with SNB-19 CNS was more than 100 µM throughout. In addition, the TGI in the assay on HL-60(TB) leukemia, with SNB-75 CNS, in the assay on A549 NSCLC and in the assay with SR leukemia was more than 100 µM each time.
`CCc1ccc2c(c1)N(CC(C)CN(C)C)c1ccccc1S2` (stereo not given): the TGI was determined as 11.5 µM in the assay on MCF7 breast; 17.4 µM in the assay on MDA-N; 15.4 µM in the assay with HOP-92 NSCLC; 17.1 µM in the assay with PC-3 prostate; 24.3 µM in the assay on EKVX NSCLC; 23 µM in the assay on SNB-19 CNS. Moreover, the TGI in the assay on HL-60(TB) leukemia turned out to be 8.66 µM; in the assay with SNB-75 CNS, 9.94 µM; with A549 NSCLC, 21.7 µM; in the assay on SR leukemia it was 11.4 µM.
As to `COc1ccc(C2=NOC(N)(c3ccc(OC)cc3)C2)cc1` (stereo not given), the TGI with MCF7 breast, in the assay on MDA-N, in the assay with HOP-92 NSCLC, with PC-3 prostate, with EKVX NSCLC and with SNB-19 CNS was more than 100 µM each time. Moreover, the TGI with HL-60(TB) leukemia, with SNB-75 CNS, in the assay on A549 NSCLC and with SR leukemia was more than 100 µM in each case.
Take `CCOC(=O)Cn1nnc2ccc(Nc3nc4ccccc4nc3-c3ccccc3)cc21`: the TGI in the assay with MCF7 breast, in the assay with MDA-N, with HOP-92 NSCLC, in the assay on PC-3 prostate, in the assay on EKVX NSCLC and with SNB-19 CNS was more than 100 µM each time. Moreover, the TGI in the assay with HL-60(TB) leukemia is more than 100 µM; in the assay on SNB-75 CNS, 99.1 µM; in the assay on A549 NSCLC it was more than 100 µM; with SR leukemia, more than 100 µM.
Consider `O=C(c1ccco1)N(C(=O)N1CCN(c2ccccc2)CC1)S(=O)(=O)c1ccccc1`, for which the TGI with MCF7 breast is 84 µM; in the assay on MDA-N, 49.6 µM; in the assay with HOP-92 NSCLC it was 73.6 µM; in the assay with PC-3 prostate, more than 100 µM; in the assay on EKVX NSCLC, 60.2 µM; with SNB-19 CNS, 85.2 µM. Moreover, the TGI in the assay on HL-60(TB) leukemia is 45.1 µM; with SNB-75 CNS, 62.9 µM; in the assay with A549 NSCLC it was more than 100 µM; in the assay with SR leukemia, 51.4 µM.
As for `CNNC(=NS(=O)(=O)c1cc(C#N)c(NNC)cc1S)NNC`, the TGI in the assay with MCF7 breast, in the assay with MDA-N, in the assay with HOP-92 NSCLC, in the assay with PC-3 prostate, in the assay on EKVX NSCLC and with SNB-19 CNS was more than 10 µM each time. Further, the TGI in the assay with HL-60(TB) leukemia, with SNB-75 CNS, with A549 NSCLC and in the assay with SR leukemia was more than 10 µM each time.
For `C=C(C)[C@@H]1CC[C@]2(C(=O)OC)CC[C@]3(C)[C@H](CC[C@@H]4[C@@]5(C)CC[C@H](O)C(C)(C)[C@@H]5CC[C@]43C)[C@@H]12`, the TGI with MCF7 breast is 41.6 µM; with MDA-N, 42.7 µM; in the assay on HOP-92 NSCLC, 41.3 µM; in the assay on PC-3 prostate it was 34.8 µM; in the assay with EKVX NSCLC, 45.1 µM; in the assay with SNB-19 CNS it was 39.5 µM. For the same molecule, the TGI with HL-60(TB) leukemia was more than 100 µM; in the assay with SNB-75 CNS, 59 µM; in the assay with A549 NSCLC it was 37.7 µM; in the assay with SR leukemia it was more than 100 µM.

Values taken from PubChem BioAssay (NCI).
